Structures can show the parent of a compound that is named as a salt.
Columns and labels:
[1] = biological target: T1, recombinant human PARP (PARP1) (Homo sapiens, UniProt P09874); assay: PARP enzyme assay, Method A (radioactivity or 'ELISA' enzyme assay with partially purified enzyme); type: biochemical; conditions: recombinant human PARP preparation, radioactive or ELISA enzyme assay
T1 construct: Full length human PARP (PARP1) is assembled from PCR fragments; His6 tag with TEV site, from the pFastBac-HTb vector (own knowledge of the vector); made in house; host or cells: insect cells, baculovirus (Bac-to-Bac, Gibco-BRL)
In short: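 Partially purified recombinant full-length His-tagged human PARP1, baculovirus-expressed. Radioactive format: 100 μg/mL sonicated DNA, 100 μg/mL histones, 100 mM Tris pH 8.0, 10 mM MgCl2, 200 μM labeled NAD, 10 min 37 °C or 60 min RT, TCA-precipitated counts. ELISA format: 250 μM NAD plus biotin-NAD on histone plates, TMB A450.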

[2] = system: intracellular synthesis of poly(ADP-ribose) in HL60 cells; assay: Cell-based PARP assay (poly(ADP-ribose) immunodetection in fixed cells); conditions: Homo sapiens, HL-60, overnight incubation with compound, serum-free media
Protocol: The following example illustrates the efficacy of the compounds of this invention in inhibiting the effects of PARP in a cell based assay.
Reagents: Media RMPI 1640+Glutamax: Gibco 61870-044); TBST/milk, TBST (Sigma T93039) containing 5% skimmed milk (Nestle Carnation nonfat dry milk)
HL60 cells at […] in serum free media are seeded into the wells of a 96-well plate at 100 μL/well. The plate is pre-incubated for 3 hr under normal tissue culture conditions. One hundred μL of serum-free media containing compound at 2× the required concentration in 0.6% DMSO are added (or 0.6% DMSO only to controls and blanks). The plate is incubated overnight under normal tissue culture conditions, then centrifuged at 190×g for 5 min at 4° C. to pellet cells. The media is carefully removed by aspiration, and the cells are incubated in 100 μL/well ice-cold 0.56% KCl for 2 min on ice. The plate is centrifuged as above to pellet cells, the KCl removed by aspiration, and 100 μL/well ice-cold methanol added. After 4 min on ice, methanol is removed by aspiration and the cells air-dried for 10-15 min at rt. The cells are washed with PBS×3, then washed with TBST/milk (1 wash, 5 min incubation at rt). The cells are incubated with 100 μL/well 0.25% Triton X 100 in PBS for 10 min at RT, then washed x# with PBS and ×1 with TBST. The cells are blocked for 1 hr with TBST/milk (200 μL/well) and then washed ×1 with TBST. The fixed cells are incubated with primary antibody (Calbiochem cat no. 528815) at 1:2000 dilution in TBST/milk (100 μL/well, overnight at 4 deg C.). The cells are washed with TBST (2 rinses, 1×15 min, 2×5 min at RT). The cells are incubated with secondary antibody (anti-rabbit Ig-biotin conjugate, Amersham RPN1004) in TBST/milk at 1:3500 dilution, 100 μL/well for 1 hr at RT. The cells are washed with TBST (2 rinses, 1×15 min, 2×5 min at RT). The cells are then incubated with 100 μL/well of 4-MUP (Sigma, M3168) in the dark for 4 hrs. The fluorescence is read using a plate reader (excitation at 360 nm, emission at 440 nm). To calculate compound effects, the fluorescence of the blank (no cells) is subtracted from all data. Fluorescence obtained with a standard cell-permeable potent inhibitor at 30 μM is subtracted from all other groups as this appears to represent a true blank. Compound effects can then be determined: a PARP inhibitor blocks the intracellular synthesis of poly(ADP-ribose), and results in a decreased reactivity (reduced final fluorescence) with primary antibody in the fixed and permeabilized cells.
The results obtained from this study are expressed as EC50 (median effective concentration of the test compound that was effective in preventing the cell death—expressed in micromolar (μM) concentration) for each of the tested compounds and are summarized in Table 2.

T1 sequence (P09874 whole entry, the tested form may be a part): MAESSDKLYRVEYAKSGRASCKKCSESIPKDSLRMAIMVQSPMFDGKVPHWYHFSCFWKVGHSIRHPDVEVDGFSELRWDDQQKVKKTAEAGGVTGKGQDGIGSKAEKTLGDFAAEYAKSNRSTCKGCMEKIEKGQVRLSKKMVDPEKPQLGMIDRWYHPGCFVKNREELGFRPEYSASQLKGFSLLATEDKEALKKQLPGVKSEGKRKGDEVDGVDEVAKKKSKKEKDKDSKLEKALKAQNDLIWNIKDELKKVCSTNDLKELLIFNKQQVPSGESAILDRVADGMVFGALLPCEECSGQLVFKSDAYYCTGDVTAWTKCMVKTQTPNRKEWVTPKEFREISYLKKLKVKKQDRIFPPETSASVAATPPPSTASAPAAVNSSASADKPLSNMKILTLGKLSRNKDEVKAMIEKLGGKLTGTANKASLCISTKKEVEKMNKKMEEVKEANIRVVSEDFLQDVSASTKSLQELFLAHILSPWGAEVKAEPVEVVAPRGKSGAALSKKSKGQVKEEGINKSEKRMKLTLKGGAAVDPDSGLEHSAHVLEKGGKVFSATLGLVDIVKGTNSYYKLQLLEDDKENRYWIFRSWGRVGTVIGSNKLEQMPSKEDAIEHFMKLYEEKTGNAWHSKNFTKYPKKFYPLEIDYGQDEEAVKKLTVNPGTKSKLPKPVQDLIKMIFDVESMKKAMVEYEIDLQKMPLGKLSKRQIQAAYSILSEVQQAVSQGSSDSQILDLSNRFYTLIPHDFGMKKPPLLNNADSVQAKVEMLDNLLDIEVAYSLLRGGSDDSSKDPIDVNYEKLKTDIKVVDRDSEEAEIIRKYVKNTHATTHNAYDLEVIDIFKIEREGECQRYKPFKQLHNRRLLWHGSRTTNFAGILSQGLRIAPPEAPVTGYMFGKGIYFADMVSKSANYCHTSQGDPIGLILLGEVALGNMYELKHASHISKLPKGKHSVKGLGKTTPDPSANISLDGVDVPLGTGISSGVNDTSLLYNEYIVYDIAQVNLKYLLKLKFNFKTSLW

Row | Compound | IC50 [1] [µM] | EC50 [2] [nM]
1 | CCc1cc(-c2ccc(S(=O)(=O)NCCCN3CCCCC3)s2)c(C)[nH]c1=O [Example 63, 5-(5-Ethyl-2-methyl-6-oxo-1,6-dihydro-pyridin-3-yl)-thiophene-2-sulfonic acid (3-piperidin-1-yl-propyl)-amide hydrochloride] | 0.42 | 430
2 | Cc1[nH]c(=O)c2c(c1-c1cccc(C#N)c1)CCCC2 [Example 5, 3-(3-Methyl-1-oxo-1,2,5,6,7,8-hexahydroisoquinolin-4-yl)benzonitrile] | 0.2 | 500
3 | CCc1cc(-c2ccc(S(=O)(=O)N3CCN(c4ccc(F)cc4)CC3)s2)c(C)[nH]c1=O [Example 25, 3-Ethyl-5-{5-[4-(4-fluorophenyl)piperazine-1-sulfonyl]thiophen-2-yl}-6-methyl-1H-pyridin-2-one] | 0.76 | 4880
4 | CCc1cc(-c2ccc(S(=O)(=O)NCCN3CCCC3)s2)c(C)[nH]c1=O [Example 95, 5-(5-Ethyl-2-methyl-6-oxo-1,6-dihydropyridin-3-yl)thiophene-2-sulfonic acid (2-pyrrolidin-1-yl)ethylamide hydrochloride] | 0.2 | 220
5 | CCc1cc(-c2ccc(CN3CCCCC3)s2)c(C)[nH]c1=O [Example 148, 3-ethyl-6-methyl-5-(5-piperidin-1-ylmethy-thiophen-2-yl)-1H-pyridin-2-one hydrochloride] | 0.41 | 520
6 | CCc1cc(-c2ccc(S(=O)(=O)NCc3cc(F)cc(F)c3)s2)c(C)[nH]c1=O [Example 27, 5-(5-Ethyl-2-methyl-6-oxo-1,6-dihydropyridin-3-yl)thiophene-2-sulfonic acid 3,5-difluorobenzylamide] | 0.1 | 14200
7 | CCc1cc(-c2ccc(S(=O)(=O)N3CCC(O)C3)s2)c(C)[nH]c1=O (centres unmarked) [Example 85, 3-Ethyl-5-[5-(3-hydroxypyrrolidine-1-sulfonyl)thiophen-2-yl]-6-methyl-1H-pyridin-2-one] | 0.31 | 330
8 | CCc1cc(-c2ccc(CN3CCCC(O)C3)s2)c(C)[nH]c1=O (centres unmarked) [Example 126, 3-Ethyl-5-[5-(3-hydroxypiperidin-1-ylmethyl)thiophen-2-yl]-6-methyl-1H-pyridin-2-one hydrochloride] | 0.43 | 30800
9 | CCc1cc(-c2ccc(S(=O)(=O)NCCNC(C)=O)s2)c(C)[nH]c1=O [Example 119, N-{2-[5-(5-Ethyl-2-methyl-6-oxo-1,6-dihydropyridin-3-yl)thiophene-2-sulfonylamino]ethyl}acetamide] | 0.38 | 800
10 | CCc1cc(-c2ccc(S(=O)(=O)N3CCC(N4CCCCC4)CC3)s2)c(C)[nH]c1=O [Example 67, 3-Ethyl-6-methyl-5-{5-[(4-piperidin-1-yl)piperidine-1-sulfonyl]thiophen-2-yl}-1H-pyridin-2-one hydrochloride] | 0.3 | 3110
11 | CCc1cc(-c2ccc(CNCC3CCCCC3)s2)c(C)[nH]c1=O [Example 143, 5-(5-Cyclohexylmethylaminomethylthiophen-2-yl)-3-ethyl-6-methyl-1H-pyridin-2-one hydrochloride] | 0.39 | 1430
12 | CCc1cc(-c2ccc(S(=O)(=O)NCCN(C)C)s2)c(C)[nH]c1=O [Example 93, 5-(5-Ethyl-2-methyl-6-oxo-1,6-dihydropyridin-3-yl)thiophene-2-sulfonic acid (2-dimethylaminoethyl)amide hydrochloride] | 0.85 | 560
13 | CCc1cc(-c2noc(C)n2)c(C)[nH]c1=O [Example 22, 3-Ethyl-6-methyl-5-(5-methyl-1,2,4-oxadiazol-3-yl)-1H-pyridin-2-one] | 0.31 | 120
14 | CCc1cc(-c2ccc(S(=O)(=O)NCc3ccc(C(F)(F)F)cc3)s2)c(C)[nH]c1=O [Example 26, 5-(5-Ethyl-2-methyl-6-oxo-1,6-dihydropyridin-3-yl)thiophene-2-sulfonic acid 4-trifluoromethylbenzylamide] | 0.19 | 2940
15 | CCc1cc(-c2ccc(CNC(C)c3ccccc3)s2)c(C)[nH]c1=O (centres unmarked) [Example 135, 3-Ethyl-6-methyl-5-{5-[(1-phenyl-ethylamino)-methyl]thiophen-2-yl}-1H-pyridin-2-one hydrochloride] | 0.35 | 12200
16 | CCc1cc(-c2ccc(S(=O)(=O)N3CCCC(Cn4ccnc4)C3)s2)c(C)[nH]c1=O (centres unmarked) [Example 70, 3-Ethyl-5-{5-[(3-imidazo-1-yl)methylpiperidine-1-sulfonyl]thiophene-2-yl}-6-methyl-1H-pyridin-2-one hydrochloride] | 0.26 | 260
17 | CCc1cc(-c2ccc(S(=O)(=O)NCc3ccncc3)s2)c(C)[nH]c1=O [Example 110, 5-(5-ethyl-2-methyl-6-oxo-1,6-dihydropyridin-3-yl)thiophene-2-sulfonic acid (pyridin-4-ylmethyl)amide hydrochloride] | 0.08 | 20
18 | CCc1cc(-c2ccc(S(=O)(=O)NCc3cccnc3)s2)c(C)[nH]c1=O [Example 101, 5-(5-Ethyl-2-methyl-6-oxo-1,6-dihydropyridin-3-yl)-thiophene-2-sulfonic acid (pyridin-3-ylmethyl)amide hydrochloride] | 0.17 | 50
19 | CCc1cc(-c2ccc(CNC(C)CCc3ccccc3)s2)c(C)[nH]c1=O (centres unmarked) [Example 136, 3-Ethyl-6-methyl-5-{5-[(1-methyl-3-phenyl-propylamino)-methyl]thiophen-2-yl}-1H-pyridin-2-one hydrochloride] | 0.46 | 14700
